Test results from patent publication US12186401B2, “Amide-based proteolysis modulators of B-rapidly accelerated fibrosarcoma (BRAF) and associated uses” (Ontario Institute for Cancer Research (OICR), priority 2019, dated 2025).

Columns and labels:
[1] = molecular target: B-Raf (V600E) (h) (Homo sapiens, UniProt P15056, V600E); experiment: Kinase inhibition assay B-Raf (V600E) (h), radiometric 33P-ATP filter assay; assay type: biochemical; conditions: read-out: IC50(nM) BRAF^V600E
Method: (§1) b-Raf (V599E) (h) was incubated with 25 mM Tris/HCl pH 7.5, 0.2 mM EGTA, 10 mM DTT, 0.01% Triton X-100, 0.5 mM, sodium orthovandate, 0.5 mM […], 1% glycerol, 34 nM unactive MEK1, 69 nM unactive MAPK2, 0.5 mg/mL myelin basic protein, and 10 mM Magnesium acetate and […] (specific activity and concentration as required). The reaction was initiated by the addition of the Mg/ATP mix. After incubation for 40 minutes at room temperature, the reaction was stopped by the addition of phosphoric acid to a concentration of 0.5%. 10 μL of the reaction was then spotted onto a P30 filtermat and washed four times for 4 minutes in 0.425% phosphoric acid and once in methanol prior to drying and scintillation counting. Similar protocols were used for other kinase assays employing the kinase of interest to generate the data in Table 1.

[2] = molecular target: CRAF (Homo sapiens, UniProt P04049); experiment: Kinase inhibition assay CRAF (similar protocol); assay type: biochemical
Chain of CRAF (P04049 whole entry): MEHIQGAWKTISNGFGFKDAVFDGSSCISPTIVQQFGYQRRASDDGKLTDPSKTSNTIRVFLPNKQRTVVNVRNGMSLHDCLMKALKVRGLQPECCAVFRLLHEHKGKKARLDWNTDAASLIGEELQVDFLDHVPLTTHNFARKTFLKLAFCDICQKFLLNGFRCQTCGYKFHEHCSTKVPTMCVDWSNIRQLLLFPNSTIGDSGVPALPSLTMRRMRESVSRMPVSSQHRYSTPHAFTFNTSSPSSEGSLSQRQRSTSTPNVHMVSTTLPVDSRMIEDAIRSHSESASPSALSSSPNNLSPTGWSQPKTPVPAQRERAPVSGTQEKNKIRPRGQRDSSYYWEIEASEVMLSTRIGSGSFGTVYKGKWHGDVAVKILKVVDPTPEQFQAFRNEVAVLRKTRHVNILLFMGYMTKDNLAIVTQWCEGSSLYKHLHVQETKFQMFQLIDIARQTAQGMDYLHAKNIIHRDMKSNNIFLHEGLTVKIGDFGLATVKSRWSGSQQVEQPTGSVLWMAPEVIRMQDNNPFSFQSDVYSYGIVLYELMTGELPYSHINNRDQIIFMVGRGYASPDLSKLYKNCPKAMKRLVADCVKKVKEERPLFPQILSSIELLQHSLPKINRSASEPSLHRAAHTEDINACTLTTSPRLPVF
Method: as §1

[3] = molecular target: T1, ARAF (Homo sapiens, UniProt P10398); experiment: Kinase inhibition assay ARAF (similar protocol); assay type: biochemical
T1 sequence (P10398 1-606): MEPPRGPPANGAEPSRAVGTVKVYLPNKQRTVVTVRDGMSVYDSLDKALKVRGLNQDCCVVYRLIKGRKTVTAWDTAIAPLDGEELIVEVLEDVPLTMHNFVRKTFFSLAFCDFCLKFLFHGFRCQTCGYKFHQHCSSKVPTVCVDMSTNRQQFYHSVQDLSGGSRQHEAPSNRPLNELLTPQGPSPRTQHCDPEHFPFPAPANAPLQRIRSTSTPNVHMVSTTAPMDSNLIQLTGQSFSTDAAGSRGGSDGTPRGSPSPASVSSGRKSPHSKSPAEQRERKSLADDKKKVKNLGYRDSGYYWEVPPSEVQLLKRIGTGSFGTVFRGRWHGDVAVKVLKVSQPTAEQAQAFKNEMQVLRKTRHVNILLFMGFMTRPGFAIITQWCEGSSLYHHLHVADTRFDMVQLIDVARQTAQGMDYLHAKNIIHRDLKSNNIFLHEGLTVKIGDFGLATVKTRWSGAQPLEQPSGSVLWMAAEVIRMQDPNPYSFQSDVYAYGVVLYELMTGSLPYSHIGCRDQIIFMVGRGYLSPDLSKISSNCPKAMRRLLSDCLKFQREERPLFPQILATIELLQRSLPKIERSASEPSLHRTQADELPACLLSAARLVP
Method: as §1

[4] = molecular target: T2, BRAF^V600E (Homo sapiens, UniProt P15056, V600E); experiment: Cellular degradation assay, Western blot of BRAF^V600E; assay type: cell-based; conditions: for degradation of BRAF^V600E by immunoblot (FIGS. 4 and 5): A375 human melanoma cells, 24 hrs; for DCmax(%) BRAF^V600E / DC50: Table 1, cells treated 24 hours, Western blot; for DC50: read-out: DC50(nM) BRAF^V600E
T2 construct: A375 or SK-Mel-28 cells were obtained from ATCC; host or cells: A375 or SK-Mel-28
T2 sequence (P15056 whole entry V600E): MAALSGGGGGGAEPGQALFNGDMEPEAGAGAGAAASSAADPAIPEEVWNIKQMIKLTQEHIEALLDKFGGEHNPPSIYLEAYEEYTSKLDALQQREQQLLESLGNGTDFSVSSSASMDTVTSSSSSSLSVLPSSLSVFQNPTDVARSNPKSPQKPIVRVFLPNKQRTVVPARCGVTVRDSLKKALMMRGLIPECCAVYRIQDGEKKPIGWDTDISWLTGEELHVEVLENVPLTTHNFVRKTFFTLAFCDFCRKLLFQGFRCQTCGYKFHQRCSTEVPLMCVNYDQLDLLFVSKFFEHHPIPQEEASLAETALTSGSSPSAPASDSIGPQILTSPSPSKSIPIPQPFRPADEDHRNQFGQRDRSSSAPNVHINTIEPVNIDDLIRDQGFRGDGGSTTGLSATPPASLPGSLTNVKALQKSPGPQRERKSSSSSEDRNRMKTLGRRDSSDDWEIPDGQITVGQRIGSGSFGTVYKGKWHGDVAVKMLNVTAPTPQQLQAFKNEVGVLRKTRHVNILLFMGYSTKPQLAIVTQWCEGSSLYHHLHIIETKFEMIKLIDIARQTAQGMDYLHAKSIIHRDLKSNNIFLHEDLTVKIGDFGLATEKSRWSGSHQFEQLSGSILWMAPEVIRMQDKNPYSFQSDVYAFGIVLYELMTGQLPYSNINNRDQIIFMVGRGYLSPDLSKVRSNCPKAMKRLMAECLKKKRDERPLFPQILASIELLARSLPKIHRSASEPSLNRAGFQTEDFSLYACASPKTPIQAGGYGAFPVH
Method: Cell culture and compound treatment: A375 or SK-Mel-28 cells were obtained from ATCC and cultured in Dulbecco's Modified Eagle Media (DMEM) supplemented with 10% FBS, penicillin and streptomycin, at 37° C., 5% CO2. Cells grown in 6-well plates were treated for 24 hours with test compounds (solubilized in DMSO) or 0.1% DMSO vehicle control. Cells were harvested by first washing with 1× phosphate-buffered saline (PBS), then scrapping into 1 ml of PBS supplemented with 1 mM phenylmethylsulfonylflouride (PMSF). Cell pellets were obtained after a centrifugation at 300-350×g for 2 min, and immediately snap frozen in liquid nitrogen.
Cell lysis and Western blot analysis: Cell pellets were thawed and lysed by pipetting in lysis buffer (50 mM HEPES (pH 7.4), 150 mM NaCl, 5 mM EDTA, 0.5% NP-40, 5 mM NaF, 10% glycerol), with Roche protease inhibitor cocktail (5056489001) and phosphatase inhibitor cocktail PhosStop (4906845001) added fresh before use. The whole cell lysate was clarified by centrifugation at 15,000-20,000×g for 20 min and supernatant was collected. Total protein concentration in the clarified lysate was determination by Bradford assay (Bio-Rad), and 30-50 ug of protein was separated through SDS-PAGE, transferred onto nitrocellulose membrane and subject to standard immunoblotting protocol. Band intensities were quantified by Bio-Rad Image Lab software. Antibodies to B-Raf (sc-5284), A-Raf (sc-166771), phosphor MEK1/2, pS218/222 (sc-7995), phosphor ERK1/2 (sc-7383) were purchased from Santa Cruz; C-Raf (9422), MEK1/2 (9122), ERK1/2 (9102) from Cell Signaling; p27 (610242) from BD Biosciences. Antibody to the loading control α-tubulin was obtained from Sigma-Aldrich (6199).

[5] = molecular target: BRAF (Homo sapiens, UniProt P15056); experiment: Kinase inhibition assay BRAF (similar protocol); assay type: biochemical
Chain of BRAF (P15056 whole entry): as the sequence (P15056 whole entry V600E) above, with E600V counted along it
Method: as §1

Chain of B-Raf (V600E) (h) (P15056 whole entry V600E): as the sequence (P15056 whole entry V600E) above

SMILES	IC50 [1]	IC50 [2]	IC50 [3]	degradation of BRAF^V600E by immunoblot (FIGS. 4 and 5) [4]	DCmax(%) BRAF^V600E [4]	DC50 [4]	IC50 [5]
CCCS(=O)(=O)Nc1ccc(F)c(-n2cc(-c3cncnc3)c3nc(N(C)C4CCN(C(=O)CCOCCOCCOCCOCCOCCOCCOCCOCCNc5cccc6c5C(=O)N(C5CCC(=O)NC5=O)C6=O)CC4)ccc32)c1F (centres unmarked) [Entry 20, N-(3-(5-((1-(1-((2-(2,6-dioxopiperidin-3-yl)-1,3-dioxoisoindolin-4-yl)amino)-3,6,9,12,15,18,21,24-octaoxaheptacosan-27-oyl)piperidin-4-yl)(methyl)amino)-3-(pyrimidin-5-yl)-1H-pyrrolo[3,2-b]pyridin-1-yl)-2,4-difluorophenyl)propane-1-sulfonamide]	85 nM	592 nM	4910 nM	Degradation of BRAF^V600E was observed	40%	75 nM	–
CCCS(=O)(=O)Nc1ccc(F)c(-n2cc(-c3cncnc3)c3nc(N(C)C4CCN(C(=O)CCC(=O)NCCCOCCOCCOCCCNc5cccc6c5C(=O)N(C5CCC(=O)NC5=O)C6=O)CC4)ccc32)c1F (centres unmarked) [Entry 21, 4-(4-((1-(2,6-Difluoro-3-(propylsulfonamido)phenyl)-3-(pyrimidin-5-yl)-1H-pyrrolo[3,2-b]pyridin-5-yl)(methyl)amino)piperidin-1-yl)-N-(3-(2-(2-(3-((2-(2,6-dioxopiperidin-3-yl)-1,3-dioxoisoindolin-4-yl)amino)propoxy)ethoxy)ethoxy)propyl)-4-oxobutanamide]	82 nM	468 nM	3340 nM	Degradation of BRAF^V600E was observed	29%	20 nM	–
CCCS(=O)(=O)Nc1ccc(F)c(-n2cc(-c3cncnc3)c3nc(N(C)C4CCN(CC)CC4)ccc32)c1F [Entry 15, N-[3-[5-[(1-ethylpiperidin-4-yl)-methylamino]-3-pyrimidin-5-ylpyrrolo[3,2-b]pyridine-1-yl]-2,4-difluorophenyl]propane-1-sulfonamide, reference compound]	31 nM	64 nM	323 nM	–	0%	–	–
CCCS(=O)(=O)Nc1ccc(F)c(-n2cc(-c3cncnc3)c3nc(N(C)C4CCN(C(=O)CCOCCOCCOCCOCCOCCNc5cccc6c5C(=O)N(C5CCC(=O)NC5=O)C6=O)CC4)ccc32)c1F (centres unmarked) [Entry 18, N-(3-(5-((1-(1-((2-(2,6-dioxopiperidin-3-yl)-1,3-dioxoisoindolin-4-yl)amino)-3,6,9,12,15-pentaoxaoctadecan-18-oyl)piperidin-4-yl)(methyl)amino)-3-(pyrimidin-5-yl)-1H-pyrrolo[3,2-b]pyridin-1-yl)-2,4-difluorophenyl)propane-1-sulfonamide]	25 nM	223 nM	3620 nM	Degradation of BRAF^V600E was observed	73%	50 nM	66 nM
